The values that follow come from ChEMBL document CHEMBL6127056, “Novel mechanistic insights - A brand new Era for anti-HBV drugs” (Eur J Med Chem, 2024).

The structures appear in SMILES notation. Residues, ends and D or L forms follow the SMILES beside them. Where only a bound is given, the exact number is not on record here.

In test [1] the test system is Hepatitis B virus. The test is described as follows: Antiviral activity against Hepatitis B virus assessed as inhibition of HBV DNA replication. The format is functional, organism-based.
Test [2] relates to Hepatitis B virus. Nature of the test: Antiviral activity against HBV infected in human HepG2.2.15 cells. The format is functional, organism-based.
For test [3], the system named is Hepatitis B virus. Nature of the test: Antiviral activity against HBV infected in human HepDES19 cells assessed as inhibition of extracellular HBV DNA by qPCR analysis. The format is functional, organism-based.
Test [4] can be described thus: Inhibition of HBV RNA polymerase. Further details: species or system Hepatitis B virus.
For test [5], the target named is Triosephosphate isomerase (Homo sapiens, UniProt P60174). Nature of the test: Inhibition of TPI1 (unknown origin).
Test [6] addresses Human immunodeficiency virus type 1 reverse transcriptase (Human immunodeficiency virus 1, UniProt Q72547). The test is described as follows: Inhibition of HIV-1 reverse transcriptase.
Test [7] concerns Hepatitis B virus. Nature of the test: Antiviral activity against HBV infected in human Primary hepatocyte assessed as reduction in HBV replication. The format is functional, organism-based.
For test [8], the target named is T1, Hepatic sodium/bile acid cotransporter (Homo sapiens, UniProt Q14973).
T1 sequence (Q14973 whole entry): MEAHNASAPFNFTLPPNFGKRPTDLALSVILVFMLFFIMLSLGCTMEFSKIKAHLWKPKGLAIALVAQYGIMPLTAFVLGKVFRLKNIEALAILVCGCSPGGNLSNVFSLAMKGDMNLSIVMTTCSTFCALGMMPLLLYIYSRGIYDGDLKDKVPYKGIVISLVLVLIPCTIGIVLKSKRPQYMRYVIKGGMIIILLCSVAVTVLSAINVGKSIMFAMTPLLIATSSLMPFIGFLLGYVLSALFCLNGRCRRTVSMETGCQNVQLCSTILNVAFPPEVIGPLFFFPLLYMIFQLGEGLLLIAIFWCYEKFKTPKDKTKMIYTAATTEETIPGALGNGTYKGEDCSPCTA
Nature of the test: Inhibition of NTCP (unknown origin) stably transfected in HEK293 cells. Type of test: cell-based.

Test [9] relates to Hepatitis B virus. Nature of the test: Antiviral activity against HBV infected in human HepG2-NTCP12 cells assessed as inhibition of viral replication. Type of test: functional, organism-based.
Test [10] concerns Hepatitis B virus. Nature of the test: Antiviral activity against HBV infected in human HePAD38 cells assessed as reduction in viral replication by qPCR analysis. The format is functional, organism-based.
In test [11] the test system is Hepatitis B virus. Nature of the test: Antiviral activity against HBV infected in human Primary hepatocytes assessed as reduction in HBV DNA level measured after 16 days by ELISA. Particulars: Hepatocyte, 384 h.
Test [12] has as its system Hepatitis B virus. Nature of the test: Antiviral activity against HBV infected in human HepG2.2.15 cells assessed as reduction in viral DNA levels incubated for 6 days by PCR analysis. Particulars: HepG2.2.15, 144 h. Type of test: functional, organism-based.
In test [13] the test system is Hepatitis B virus. The test is described as follows: Antiviral activity against HBV infected in human HepG2.117 cells assessed as reduction in intracellular DNA level by RT-qPCR analysis. Type of test: functional, organism-based.

Triosephosphate isomerase, sequence (P60174 whole entry): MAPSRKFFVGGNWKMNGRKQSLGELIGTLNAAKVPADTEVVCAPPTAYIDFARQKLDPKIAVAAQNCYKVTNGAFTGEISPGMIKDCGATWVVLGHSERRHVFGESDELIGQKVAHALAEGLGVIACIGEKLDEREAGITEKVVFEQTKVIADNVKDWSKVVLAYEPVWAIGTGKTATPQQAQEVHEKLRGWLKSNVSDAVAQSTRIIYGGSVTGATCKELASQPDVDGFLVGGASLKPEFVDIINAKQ

For the compound `CCn1ccnc1-c1c(-c2ccccc2)ncn1CCCc1cccnc1`, the EC50 in the test on Hepatitis B virus [1] is 10 µM.
Turning to `COc1ccc(-c2cc(=O)c3c(O)cc(O)c(-c4cc(-c5cc(=O)c6c(O)cc(OC)cc6o5)ccc4OC)c3o2)cc1` [SCIADOPITISIN], in the test with Hepatitis B virus [2], a half-maximal effect (EC50) was put at 56.4 µg/mL.
In the test with Hepatitis B virus [2], `CCOCCOC(=O)C1=C(C)NC(c2ncc(F)cc2F)=NC1c1ccc(F)cc1C` (stereo not given) returned an EC50 of 6.24 µM.
With `C/C(=N\c1cccc(F)c1)c1c(C)cc(=O)n(O)c1O`, the EC50 in the test with Hepatitis B virus [1] is 2.1 µM.
On to `CCOC(=O)C1=C(CN2CCOCC2)NC(c2nccs2)=NC1c1ccc(F)cc1Br` (stereo not given), for which the EC50 with Hepatitis B virus [3] was determined as 0.1 µM.
`CCOC(=O)c1cc(-c2cc(=O)oc3ccccc23)oc1C`: the IC50 in [4] was 16.7 µM. This lies in the double-digit micromolar range.
For `CCCCCCCCCc1cc(OC(=O)c2c(CCCCCCCCC)cc(O)cc2O[C@@H]2O[C@H](CO)[C@@H](O)[C@H](O)[C@H]2O)cc(O)c1C(=O)O`, the IC50 in test [5] was determined as 1.1 µM.
For `Nc1ncnc2c1ncn2[C@@H]1OC[C@](F)(COP(=O)(O)OP(=O)(O)OP(=O)(O)O)[C@H]1CO`, half-maximal inhibition in test [6] (IC50) required 0.32 µM.
For the compound `CNC(=O)C1(NC(=O)C(=O)c2c(C)c(C(=O)Nc3ccc(F)c(F)c3)n3c2CCC3)CC(F)(F)C1`, the EC50 in the test with Hepatitis B virus [7] came to 0.08 µM.
In [8], `CCC[C@@H]1NC(=O)[C@H](CC(C)C)N(C)C(=O)[C@H](CC(C)C)N(C)C(=O)CN(CCO)C(=O)[C@H](CC(C)C)N(C)C(=O)[C@@H](C)NC(=O)[C@H](CCC(N)=O)NC(=O)[C@H](CC(C)C)N(C)C(=O)[C@H](C(C)C)NC(=O)[C@H](CC(C)C)N(C)C(=O)CN(C)C1=O` (HELM PEPTIDE1{[meL].[meL].[Nva].[Sar].[meL].V.[meL].Q.[dA].[meL].[O=C(CN(CCO)[*:1])[*:2]]}$PEPTIDE1,PEPTIDE1,1:R1-11:R2$$$V2.0) returned an IC50 of 0.36 µM.
For `C[C@]12CCCC[C@@H]1CC[C@@H]1[C@@H]2CC[C@]2(C)[C@@H]([C@H](O)CCc3ccc(F)cc3)CC[C@@H]12`, it took 10.6 µM to reach half-maximal inhibition in test [5] (IC50).
With `O=C(OCc1ccc(-c2cnc3ccccc3n2)cc1)c1cccs1`, in the test with Hepatitis B virus [1], the EC50 was over 10 µM.
With `O=C(O)C1CC(OCCOc2ccc(-c3cc(=O)c4cccc(Cl)c4o3)cc2)C1` (stereo not given), the EC50 in the test with Hepatitis B virus [7] came to 0.2 µM.
Take `CCCCCCCc1cc(OC(=O)c2c(CCCCCCC)cc(O)cc2O[C@H]2O[C@@H](CO)[C@@H](O)[C@@H](O)[C@@H]2O)cc(O)c1C(=O)O`: 2.2 µM corresponded to half-maximal inhibition in test [5] (IC50).
Compound `C=C(c1ccc(C(=O)O)cc1)c1cc2c(cc1C)C(C)(C)CCC2(C)C` [BEXAROTENE] had an IC50 in test [5] of 1.89 µM.
For `CN1[C@H](C(=O)Nc2ccc(F)c(Cl)c2)C[C@H](c2ncc(-c3cn(C)cn3)s2)NS1(=O)=O`, the EC50 with Hepatitis B virus [9] was 0.027 µM; in the test on Hepatitis B virus [10], 0.022 µM; in the test with Hepatitis B virus [11], 0.041 µM.
For `CC[C@H](C)C[C@H](C)C(=O)O[C@]1(C)C(=O)c2c(cc(O)c3c2C[C@@H](O)C[C@H]3C)[C@@](C)(O)C1=O`, in [5], the IC50 is 0.61 µM.
Regarding `C[C@]12CC[C@@H]3c4ccc(OC(=O)c5ccccc5)cc4CC[C@H]3[C@@H]1CC[C@@H]2O` [ESTRADIOL BENZOATE], the IC50 in test [4] was determined as 279 µM.
Consider `O=C(NCc1ccc(-c2cccnc2)nc1)c1ccc2nccnc2c1`, for which the EC50 in the test with Hepatitis B virus [1] was over 10 µM.
`CCOC(=O)c1cc(-c2cc(C(=O)OCC)c3ccccc3n2)nc2ccccc12`: the EC50 in the test on Hepatitis B virus [1] is over 10 µM.
Regarding `O=c1cc(-c2ccccc2)oc2cc(O)cc(O)c12` [CHRYSIN], the EC50 in the test on Hepatitis B virus [7] was 22.5 µM.
On to `Cc1cc(N)c(S(N)(=O)=O)cc1C(=O)Nc1cc(F)c(F)c(F)c1`, for which the EC50 in the test on Hepatitis B virus [12] is 0.06 µM.
For the compound `Nc1ncnc2c1ncn2[C@@H]1OC[C@](F)(CO)[C@H]1CO`, in the test with Hepatitis B virus [13], the EC50 was over 10 µM.
